In data set [1] the target is spartin-like protein from Chaetomium thermophilum (CtSpartinL), residues 7-480 (Chaetomium thermophilum). Put plainly: native gel or EMSA. Background: Mobility shift assays separate free from complexed probe on a gel.
Data set [2] concerns the target C. elegans spartin (CeSpartin) (C. elegans). The data set can be described thus: native gel or EMSA.
The next data set concerns the target T1, CeSpartin (Caenorhabditis elegans, UniProt O44735).
T1 sequence (O44735 1-476): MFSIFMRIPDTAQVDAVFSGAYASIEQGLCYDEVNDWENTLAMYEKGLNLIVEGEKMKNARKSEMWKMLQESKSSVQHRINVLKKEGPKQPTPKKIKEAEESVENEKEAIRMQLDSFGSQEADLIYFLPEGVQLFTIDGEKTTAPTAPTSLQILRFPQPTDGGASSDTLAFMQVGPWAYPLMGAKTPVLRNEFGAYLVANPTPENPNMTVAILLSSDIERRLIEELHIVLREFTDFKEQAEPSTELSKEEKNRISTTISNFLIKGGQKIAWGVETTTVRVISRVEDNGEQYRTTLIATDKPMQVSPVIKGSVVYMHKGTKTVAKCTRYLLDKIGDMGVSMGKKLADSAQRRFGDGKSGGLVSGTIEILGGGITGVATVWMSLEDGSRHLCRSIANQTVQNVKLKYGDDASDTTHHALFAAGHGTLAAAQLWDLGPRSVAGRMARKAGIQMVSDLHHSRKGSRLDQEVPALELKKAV
Put plainly: FRET-based lipid transfer between tethered liposomes. To be noted: 30 C, pH 8.0, labelled compound. It counts as biochemical.

The next data set deals with T2, CtSpartinL (Thermochaetoides thermophila, UniProt G0S883).
T2 sequence (G0S883 7-480): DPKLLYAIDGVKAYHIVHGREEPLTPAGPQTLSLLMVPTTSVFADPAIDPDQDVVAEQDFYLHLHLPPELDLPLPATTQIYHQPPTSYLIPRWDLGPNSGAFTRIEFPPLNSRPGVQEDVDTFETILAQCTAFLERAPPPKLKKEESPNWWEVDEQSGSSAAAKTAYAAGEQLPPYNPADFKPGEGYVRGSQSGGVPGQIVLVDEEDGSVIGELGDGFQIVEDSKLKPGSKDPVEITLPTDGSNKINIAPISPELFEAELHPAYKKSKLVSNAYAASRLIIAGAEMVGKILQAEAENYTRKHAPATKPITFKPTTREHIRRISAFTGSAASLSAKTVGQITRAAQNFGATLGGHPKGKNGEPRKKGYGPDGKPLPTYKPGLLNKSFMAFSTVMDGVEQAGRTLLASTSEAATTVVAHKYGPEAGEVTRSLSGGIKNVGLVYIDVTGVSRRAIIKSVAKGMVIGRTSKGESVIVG
Described as above. The data set is classed as biochemical. To be noted: 30 C, pH 8.0; labelled compound.

A further data set addresses T3, CtSpartinLSD (Thermochaetoides thermophila, UniProt G0S883).
T3 sequence (G0S883 186-480): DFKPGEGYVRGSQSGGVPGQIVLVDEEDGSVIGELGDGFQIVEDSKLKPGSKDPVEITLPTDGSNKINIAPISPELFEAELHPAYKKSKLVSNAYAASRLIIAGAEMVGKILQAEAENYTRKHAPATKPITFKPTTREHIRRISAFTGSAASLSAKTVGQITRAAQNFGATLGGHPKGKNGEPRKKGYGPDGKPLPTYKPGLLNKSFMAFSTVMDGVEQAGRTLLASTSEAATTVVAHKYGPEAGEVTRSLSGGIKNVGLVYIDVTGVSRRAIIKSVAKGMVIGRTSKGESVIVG
The data set can be described thus: native gel comigration. It counts as binding. To be noted: on ice, 2 h; labelled compound; also transferred between liposomes.

The data set “native gel or EMSA” deals with the molecule itself. Put plainly: native gel or EMSA.

As a reminder, the stoichiometry N is the number of molecules, sites or subunits per partner or assembly.

For the molecule “spartin-like protein from Chaetomium thermophilum (CtSpartinL), residues 7-480 (natural protein)”, the stoichiometry N in data set [1] is 3.

The molecule “C. elegans spartin (CeSpartin) (natural protein)” had a stoichiometry N in data set [2] of 3. In the case of `CCCCCCCCCCCCCCCC(=O)OC[C@H](COP(=O)(O)OCCN)OC(=O)CCCCCNc1ccc([N+](=O)[O-])c2nonc12` [NBD-PE, 1-palmitoyl-2-{6-[(7-nitro-2-1,3-benzoxadiazol-4-yl)amino]hexanoyl}-sn-glycero-3-phosphoethanolamine], the “FRET-based lipid transfer between tethered liposomes” value on CeSpartin (less robust than NBD-PC) is recorded as “we observed fluorescence increases consistent with NBD-PC or NBD-PE transfer”. For the molecule `CCCCCCCCCCCCCCCC(=O)OC[C@H](COP(=O)([O-])OCC[N+](C)(C)C)OC(=O)CCCCCNc1ccc([N+](=O)[O-])c2nonc12` [NBD-PC, 1-palmitoyl-2-{6-[(7-nitro-2-1,3-benzoxadiazol-4-yl)amino]hexanoyl}-sn-glycero-3-phosphocholine], the “FRET-based lipid transfer between tethered liposomes” value at CtSpartinL is listed as “addition of CeSpartin, HsSpartin or CtSpartinL to the liposomes all result in increased NBD fluorescence”; at CeSpartin it was “we observed fluorescence increases consistent with NBD-PC or NBD-PE transfer”. The native gel comigration entry on CtSpartinLSD was “senescence domain fragment comigrates with NBD-PC on native gels”.

B1: human spartin (HsSpartin) (natural protein, UniProt Q8N0X7 1-666, looked up)
chain: MEQEPQNGEPAEIKIIREAYKKAFLFVNKGLNTDELGQKEEAKNYYKQGIGHLLRGISISSKESEHTGPGWESARQMQQKMKETLQNVRTRLEILEKGLATSLQNDLQEVPKLYPEFPPKDMCEKLPEPQSFSSAPQHAEVNGNTSTPSAGAVAAPASLSLPSQSCPAEAPPAYTPQAAEGHYTVSYGTDSGEFSSVGEEFYRNHSQPPPLETLGLDADELILIPNGVQIFFVNPAGEVSAPSYPGYLRIVRFLDNSLDTVLNRPPGFLQVCDWLYPLVPDRSPVLKCTAGAYMFPDTMLQAAGCFVGVVLSSELPEDDRELFEDLLRQMSDLRLQANWNRAEEENEFQIPGRTRPSSDQLKEASGTDVKQLDQGNKDVRHKGKRGKRAKDTSSEEVNLSHIVPCEPVPEEKPKELPEWSEKVAHNILSGASWVSWGLVKGAEITGKAIQKGASKLRERIQPEEKPVEVSPAVTKGLYIAKQATGGAAKVSQFLVDGVCTVANCVGKELAPHVKKHGSKLVPESLKKDKDGKSPLDGAMVVAASSVQGFSTVWQGLECAAKCIVNNVSAETVQTVRYKYGYNAGEATHHAVDSAVNVGVTAYNINNIGIKAMVKKTATQTGHTLLEDYQIVDNSQRENQEGAANVNVRGEKDEQTKEVKEAKKKDK
As for B1, the “stoichiometry N” value in “native gel or EMSA” was approximately 3.
